Data as given in patent US6500826B1, “Use of panaverium bromide for preventing cell proliferation and diseases caused thereby in the liver and digestive tract” (Solvay Pharma, priority 1996, dated 2002).

What was measured:
Assay type in all cases: cell-based
[1] = system: STC-1 mouse intestinal cancer cell lines; assay: Growth of STC-1 carcinoid intestinal cells, cell counting or MUH fluorescence; conditions: STC-1, read-out: ED50 (cell growth)
Method: The STC-1 mouse intestinal cancer cell lines are cultured in a DMEM medium which contains 15% horse serum and 2.5% FCS. The products to be studied are added to the culture and cell growth is assessed by counting cells or, more frequently, by a fluorescence technique which is based on the cellular enzymic hydrolysis of the fluorogenic substrate 4-methylumbelliferyl heptanoate (MUH); thus, viable cells which are incubated with MUH generate a fluorescent signal which is proportional to their number and which is determined using a “Titentec Fluoroscan II” (Flow Laboratory), with the value being given in arbitrary fluorescence units.

[2] = system: BON human pancreatic carcinoid cell lines; assay: Inhibition of growth of BON pancreatic carcinoid cells, MUH fluorescence; conditions: 192 h, read-out: ED50 (inhibition of cell growth)
Method: The BON human pancreatic carcinoid cell lines are cultured in a DMEM/F12K (1/1) medium to which 10% FCS is added.

[3] = system: LFC rat hepatocarcinoma cells; assay: Inhibition of proliferation of LFC hepatocarcinoma cells, tritiated thymidine incorporation; conditions: concentrations of 0.1% and 1% by weight
Method: LFC rat hepatocarcinoma cells (VPR42, Villejuif) are cultured at the rate of 10^4 or 5×10^4 cells in a well containing 200 μl of culture medium.
Inhibition of cell proliferation is assessed using tritiated thymidine as described in Test 1. The assessment is made in comparison with the reference product, which is verapamil.

[4] = system: HT29 colon cancer cell line; assay: Inhibition of proliferation of HT29 colon cancer cells, tritiated thymidine incorporation; conditions: Homo sapiens, HT-29, 15 h, read-out: % Inhibition of cell proliferation (3HThdR incorporation)
Method: The HT29 colon cancer cell line employed (originally isolated from an adenocarcinoma of the human colon) was obtained from the ATCC (American Type Culture Collection).
The cells are cultured at the rate of 10^4 or 5×10^4 cells in a well containing 200 μl of culture medium composed of RPMI […] supplemented with 10% fetal calf serum, 2 mM of L-glutamine and 25 μM gentamicin.

Compound: COc1ccc(CCN(C)CCCC(C#N)(c2ccc(OC)c(OC)c2)C(C)C)cc1OC (stereo not drawn) [verapamil]
- EC50 [1]: 13 µM
- EC50 [2]: 43.6 µM
- percentage inhibition of proliferation [3]: 72%
- inhibition at 0.025 % strength [4]: 17%
- inhibition at 0.05 % strength [4]: 17%
- inhibition at 0.1 % strength [4]: 27%
